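Test compounds were applied to cells in 96-well plates for 48 hours at 5 doses. GI50 is the concentration that inhibits growth by half.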 The source made the active and inactive calls. Cut-off read from the data, not from the text of the source: active = GI50 up to about 1.1 µM and inactive = higher.
Experiments:
Assay in all cases: DTP human tumour cell line panel, 48 h
CAKI-1 = system: CAKI-1
CCRF-CEM = system: CCRF-CEM
COLO 205 = system: COLO 205
EKVX = system: EKVX
HOP-62 = system: HOP-62
HT-29 = system: HT-29
LOX IMVI = system: LOX IMVI
M14 = system: M14
MOLT-4 = system: MOLT-4
NCI-H226 = system: NCI-H226
NCI-H23 = system: NCI-H23
OVCAR-3 = system: OVCAR-3
OVCAR-8 = system: OVCAR-8
SF-268 = system: SF-268
SF-539 = system: SF-539
SNB-19 = system: SNB-19
UACC-62 = system: UACC-62
U-251 = system: U-251

Measured: GI50

Brc1cc(C2OCCCO2)ccc1OCc1ccccc1
inactive: CAKI-1 54 µM | CCRF-CEM 41.2 µM | COLO 205 27.4 µM | EKVX 52.8 µM | HOP-62 43.9 µM | HT-29 17.5 µM | LOX IMVI 25.8 µM | M14 33.5 µM | MOLT-4 24.9 µM | NCI-H226 73.1 µM | NCI-H23 45.6 µM | OVCAR-3 74.1 µM | OVCAR-8 57.3 µM | SF-268 76.4 µM | SF-539 64.3 µM | SNB-19 88.7 µM | UACC-62 47.9 µM

O=C1C=CC2(CCCCCCC2=O)CC1 (centres undefined)
inactive: CAKI-1 > 100 µM | CCRF-CEM > 100 µM | COLO 205 57 µM | EKVX > 100 µM | HOP-62 > 100 µM | HT-29 > 100 µM | LOX IMVI 44.9 µM | M14 > 100 µM | MOLT-4 > 100 µM | NCI-H226 42.6 µM | OVCAR-3 > 100 µM | OVCAR-8 > 100 µM | SF-268 > 100 µM | SF-539 > 100 µM | SNB-19 > 100 µM | U-251 > 100 µM | UACC-62 > 100 µM

CN(C)c1ccc(/C=C(/C(=O)O)c2csc(-c3nc(/C(=C\c4ccc(N(C)C)cc4)C(=O)O)cs3)n2)cc1
inactive: CAKI-1 > 100 µM | CCRF-CEM 16.7 µM | COLO 205 93.3 µM | EKVX > 100 µM | HOP-62 > 100 µM | HT-29 44.7 µM | LOX IMVI 73.8 µM | M14 > 100 µM | MOLT-4 58.6 µM | NCI-H226 > 100 µM | NCI-H23 > 100 µM | OVCAR-3 > 100 µM | OVCAR-8 > 100 µM | SF-268 > 100 µM | SF-539 > 100 µM | U-251 > 100 µM | UACC-62 80.9 µM

O=C1C2CC=CCC2C(=O)C12CCc1ccccc12 (centres undefined)
inactive: CAKI-1 > 100 µM | CCRF-CEM > 100 µM | COLO 205 > 100 µM | EKVX > 100 µM | HOP-62 > 100 µM | HT-29 > 100 µM | LOX IMVI > 100 µM | M14 > 100 µM | NCI-H23 > 100 µM | OVCAR-3 > 100 µM | OVCAR-8 > 100 µM | SF-268 > 100 µM | U-251 > 100 µM | UACC-62 > 100 µM

OCC1OC2c3ccccc3COC2C1OCc1ccccc1 (centres undefined)
inactive: CAKI-1 96.8 µM | COLO 205 > 100 µM | EKVX > 100 µM | HT-29 > 100 µM | M14 > 100 µM | MOLT-4 > 100 µM | NCI-H226 > 100 µM | NCI-H23 91.6 µM | OVCAR-3 > 100 µM | OVCAR-8 > 100 µM | SNB-19 > 100 µM | U-251 > 100 µM | UACC-62 69.5 µM

CCOC(=O)C(CCC(N)=O)(CCC(=O)OC)C(=O)OCC
inactive: CAKI-1 > 100 µM | COLO 205 > 100 µM | EKVX > 100 µM | HOP-62 > 100 µM | HT-29 > 100 µM | LOX IMVI > 100 µM | M14 > 100 µM | MOLT-4 > 100 µM | NCI-H226 > 100 µM | NCI-H23 > 100 µM | OVCAR-3 > 100 µM | OVCAR-8 > 100 µM | SF-268 > 100 µM | SF-539 > 100 µM | SNB-19 > 100 µM | U-251 > 100 µM | UACC-62 > 100 µM

COc1ccc(Nc2nc3ccc(C(F)(F)F)cc3nc2-c2ccccc2)cc1OC
inactive: CAKI-1 60.4 µM | CCRF-CEM 25.1 µM | COLO 205 27.9 µM | EKVX 20.7 µM | HOP-62 > 100 µM | HT-29 6.65 µM | LOX IMVI 16.1 µM | M14 55.5 µM | MOLT-4 22 µM | NCI-H226 28.6 µM | NCI-H23 32.4 µM | OVCAR-3 54.7 µM | OVCAR-8 58.6 µM | SF-268 92.7 µM | SF-539 42.6 µM | U-251 34.1 µM | UACC-62 66.8 µM

Cc1nc2nnnn2c2c1C(=O)Nc1ccccc1N2
inactive: CCRF-CEM > 100 µM | COLO 205 > 100 µM | EKVX 79.8 µM | HOP-62 71.9 µM | HT-29 > 100 µM | LOX IMVI > 100 µM | M14 > 100 µM | MOLT-4 43.2 µM | NCI-H226 > 100 µM | NCI-H23 > 100 µM | OVCAR-3 > 100 µM | OVCAR-8 > 100 µM | SF-268 > 100 µM | SF-539 > 100 µM | SNB-19 > 100 µM | U-251 > 100 µM | UACC-62 > 100 µM

COc1cccc(C(=O)N2CCc3ccccc32)c1OC
inactive: CAKI-1 38.5 µM | CCRF-CEM 42.2 µM | COLO 205 58.7 µM | EKVX > 100 µM | HOP-62 > 100 µM | HT-29 38.9 µM | LOX IMVI 87.7 µM | M14 43.6 µM | MOLT-4 23 µM | NCI-H226 90.6 µM | NCI-H23 34.4 µM | OVCAR-3 38.5 µM | OVCAR-8 78.3 µM | SF-539 > 100 µM | SNB-19 74.8 µM | U-251 52.7 µM | UACC-62 47 µM

NC1(CCCCCCCCCCC(=O)O)CNCCNCCNCCNC1
inactive: CAKI-1 84.1 µM | CCRF-CEM 22.6 µM | COLO 205 15.6 µM | EKVX 94.6 µM | HOP-62 23.1 µM | HT-29 40.8 µM | M14 75.3 µM | MOLT-4 30.2 µM | NCI-H23 > 100 µM | OVCAR-3 59 µM | OVCAR-8 67.3 µM | SF-268 > 100 µM | SF-539 54.1 µM | SNB-19 18.5 µM | UACC-62 47.6 µM

Cc1ccc(C)c(NC(=O)CC/C(=N\NC(=O)c2c(O)ccc3ccccc23)C(C)C(=O)c2ccc(O)cc2)c1 (centres undefined)
inactive: CAKI-1 65.2 µM | CCRF-CEM 15.2 µM | COLO 205 25.2 µM | HOP-62 49.5 µM | HT-29 46.9 µM | LOX IMVI 18.7 µM | M14 16.9 µM | MOLT-4 27.2 µM | NCI-H226 37.1 µM | NCI-H23 31.1 µM | OVCAR-3 23.3 µM | OVCAR-8 26.1 µM | SF-268 17.9 µM | SF-539 30.7 µM | SNB-19 11.6 µM | U-251 31.8 µM | UACC-62 17.3 µM

COc1ccc2c(c1)C(=O)N1CCOC1C2C(=O)O (centres undefined)
inactive: CAKI-1 > 100 µM | CCRF-CEM > 100 µM | EKVX > 100 µM | HOP-62 > 100 µM | HT-29 > 100 µM | LOX IMVI > 100 µM | M14 > 100 µM | MOLT-4 > 100 µM | NCI-H23 > 100 µM | OVCAR-3 > 100 µM | OVCAR-8 > 100 µM | SF-268 > 100 µM | SF-539 > 100 µM | SNB-19 > 100 µM | U-251 > 100 µM | UACC-62 > 100 µM

CC(O)CNC(=O)C(C)Oc1ccc(OCC2CCCCC2)cc1 (centres undefined)
inactive: CCRF-CEM > 100 µM | HT-29 > 100 µM | LOX IMVI > 100 µM | M14 > 100 µM | MOLT-4 > 100 µM | NCI-H226 88.5 µM | OVCAR-3 > 100 µM | OVCAR-8 > 100 µM | SF-268 > 100 µM | SF-539 > 100 µM | SNB-19 > 100 µM | U-251 > 100 µM | UACC-62 > 100 µM

COc1cc(C[P+](c2ccccc2)(c2ccccc2)c2ccccc2)cc(OC)c1OC
inactive: CAKI-1 > 100 µM | CCRF-CEM > 100 µM | COLO 205 > 100 µM | EKVX > 100 µM | HOP-62 > 100 µM | HT-29 > 100 µM | LOX IMVI > 100 µM | M14 > 100 µM | NCI-H226 > 100 µM | NCI-H23 > 100 µM | OVCAR-3 > 100 µM | OVCAR-8 > 100 µM | SF-268 > 100 µM | SF-539 > 100 µM | SNB-19 > 100 µM | U-251 > 100 µM | UACC-62 > 100 µM

COC(=O)/C(=N\NC(N)=S)C(C#N)c1ccccc1 (centres undefined)
inactive: CCRF-CEM > 100 µM | COLO 205 > 100 µM | EKVX > 100 µM | HOP-62 > 100 µM | HT-29 > 100 µM | LOX IMVI > 100 µM | M14 > 100 µM | MOLT-4 > 100 µM | NCI-H226 > 100 µM | NCI-H23 > 100 µM | OVCAR-3 > 100 µM | OVCAR-8 > 100 µM | SF-268 > 100 µM | SF-539 > 100 µM | SNB-19 > 100 µM | U-251 > 100 µM | UACC-62 > 100 µM

Cn1c(=O)c2c(nc3n2CCC(=O)N3)n(C)c1=O
inactive: CAKI-1 > 100 µM | CCRF-CEM > 100 µM | COLO 205 > 100 µM | EKVX > 100 µM | HOP-62 > 100 µM | HT-29 > 100 µM | LOX IMVI > 100 µM | MOLT-4 > 100 µM | NCI-H226 > 100 µM | NCI-H23 > 100 µM | OVCAR-8 > 100 µM | SF-268 > 100 µM | SF-539 > 100 µM | SNB-19 > 100 µM | U-251 > 100 µM | UACC-62 > 100 µM

O=C(NCCCC/N=c1/cccccc1NCCCCNC(=O)OCc1ccccc1)OCc1ccccc1
inactive: CAKI-1 20.9 µM | CCRF-CEM 16.6 µM | EKVX 22.9 µM | HOP-62 21.2 µM | HT-29 6.04 µM | LOX IMVI 16.4 µM | M14 14.5 µM | MOLT-4 15.3 µM | NCI-H226 16.4 µM | NCI-H23 19.3 µM | OVCAR-3 14.3 µM | OVCAR-8 18.9 µM | SF-268 25.6 µM | SF-539 16.3 µM | SNB-19 23.8 µM | U-251 16.1 µM | UACC-62 19.4 µM

From ChEMBL document CHEMBL1201862, “PubChem BioAssay data set” (2004)
